Measurements from patent publication US6852708B2, “Use of hyaluronic acid and forms to prevent the narrowing of the vascular walls” (Jagotec AG, priority 1991, dated 2005).
Several values for one entry are separate records, joined by “and”; a condition that tells them apart may be missing. Equal entries are not always repeated.

Tests used:
macrophage cell line S1 = experiment: Chemotaxis of macrophage cell line S1 to endotoxin-activated mouse serum (complement); assay type: cell-based; settings: peptide 2 μg/mL; FIG. 11
Method: (§1) The HA-binding region of RHAMM consists of two 10 amino acid domains located close to the carboxy terminus of the protein^15. A peptide mimicking Domain I (amino acides^401-411)—[…]—and a scrambled peptide consisting of the same amino acids arranged in a random manner-———-were synthesized at the Manitoba Institute of Cell Biology. Both peptides were used at a final concentration of 2 μg/mL in locomotion assays.
(§2) The macrophage cell lines S1 and WEHI-3 were used to analyze the effect of antibodies and synthetic peptide on macrophage chemotaxis to endotoxin-activated mouse serum (AS). These cell lines were also maintained in DME with 10% FCS and 20 mM Hepes buffer, pH 7.2 at 37° C. and 5% CO2 in air.
(§3) Chemotaxis was stimulated using either bacterial endotoxin-activated mouse serum (AS), prepared according to Stevenson et al.^18 for macrophage cell lines, or 100 ng/mL interleukin-8 (IL-8) for meutrophils. Heat-inactivated serum (56° C. for 20 minutes) or medium served as negative controls respectively. […] The number of displaced cells was quantified by the addition of 3-(4.5-dimethylthiazol-2-yl)-2.5-[…] tetrazolium bromide (MTT) to a final concentration of 250 μg/mL that was incubated at 37° C. for 4 hours. […] The plate was analyzed within 2 hours on a microtiter plate ELISA reader with a filter of 540 nm. […]

[1] = system: smooth muscle cells isolated from bovine aorta; experiment: Smooth muscle cell migration after wounding of monolayers (timelapse cinemicrography); assay type: cell-based
Method: as §1
Smooth muscles cells were isolated from bovine aorta as described previously for rate aorta^17 and were maintained in Dulbecco's Modified Eagles medium (DME) supplemented with 10% fetal calf serum (FCS) and 20 mM Hepes buffer, pH 7.2 at 37° C. and 5% CO2 in air. All experiments were performed using defined medium [DM, Dulbecco's Modified Eagles medium with 20 mM HEPES buffer, pH 7.2, 0.5 U/mL insulin (beef and pork zinc suspension, Novo Laboratories Ltd., Willowdale, Ontario) and 4 μg/mL transferrin (Sigma Chemical Co., St. Louis, Mo.)], and the culture medium was replaced 24 hours before filming. […]
Injured cell monlayers were monitored for motility using an 1 M 35 Zeiss inverted microscope to which a video camera (Hamamatsu CCD, Inc., Japan) was attached. […] This program allows quantification of nuclear displacement from a sequence of digitalized images. The motility of thirty cells in each experiment was followed for a period of 24 hours with mean velocities calculated every hour.

[2] = system: macrophage cell line WEHI-3; experiment: Chemotaxis of macrophage cell line WEHI-3 to endotoxin-activated mouse serum (complement); assay type: cell-based; settings: peptide 2 μg/mL; FIG. 11
Method: as §1, §2, §3

Human neutrophils = experiment: Chemotaxis of neutrophils to IL-8; assay type: cell-based; settings: 100 ng/mL IL-8; peptide 2 μg/mL; FIG. 10
Method: as §1
Human neutrophils were obtained from peripheral blood samples of normal volunteers and mixed in ACD solution (0.085) M trisodium citrate, 0.065 M citric acid, 2% Dextrose) to prevent clotting. 5% Dextran was added and the separated plasma and white blood cells were removed. The cells were washed twice in PBS, pH 7.2 and a Ficoll gradient was used to separate the lymphocytes. The isolated neutrophils were then washed and resuspended in PBS. […]
as §3, with “meutrophils.” for “meutrophils. Heat-inactivated serum (56° C. for 20 minutes) or medium served as negative controls respectively.”

[3] = system: balloon angioplasty injured carotid artery; experiment: Balloon angioplasty injury in cholesterol-fed rabbits, hyaluronan injections administered subcutaneously; assay type: in vivo, rabbit
Method: Tests were conducted with cholesterol-fed rabbits and the following was found. The tests were of the same nature except that the injections of the hyaluronan (sodium hyaluronate) were administered subcutaneously.

[4] = system: balloon catheter injured common carotid artery; experiment: Balloon catheter injury of the common carotid artery in cholesterol-fed rabbits, hyaluronan i.v. bolus then daily s.c.; assay type: in vivo, New Zealand White rabbit; settings: for reduction in mean intimal macrophage content: versus cholesterol-diet alone, p<0.02; for reduction of the absolute neo-intimal response to injury (absolute size of the neo-intima): versus cholesterol-fed group given saline, p<0.05, 15 mg/kg/day
Source text: Juvenile New Zealand White rabbits (3 to 6 months old), weighing approximately 2.5 kg were obtained from Rosemead Rabbit Co. Essex, UK) and housed in the Biological Services Unit of St. bartholomew's Hospital Medical College, London.
After one week on a commercial rabbit chow diet (Scientific Diet Services, Essex, UK) the animals were started on a 2% cholesterol diet (Scientific Diet Services, Essex, UK). Water was allowed ad libitum.
One week after starting the above diet, animals were anaesthetized with intramuscular xylazine [Rompun (Bayer, Suffolk, UK); 40 mg/kg] and ketamine [Vetalar (Parke-Davis, UK); 10 mg/kg]. The left carotid bifurcation was exposed through a paramedian incision, and the external carotid artery prepared for balloon injury. The animals were injected with a bolus of sterile sodium hyaluronate (15 mg/kg) referred to at page 15, line 31 to page 16 line 1 (Hyal Pharmaceutical Corporation, Ontario, Canada) or saline via a marginal ear vein. Endothelium was then removed from the entire left common carotid artery by the passage of an inflated 2F French Fogarty Embolectomy catheter as previously described (Ferns et al 1992). The catheter was then withdrawn, the external carotid tied off, and the skin and deep fascia closed with chromic catgut and discontinuous 3-O silk. The validity of the procedure for endothelial cell denudation was assessed by scanning electron microscopy of a number of carotids from animals killed immediately post-operatively. Animals received a further subcutaneous injection of hyaluronic acid (15 mg/kg) or saline post-operatively, and daily until sacrifice.
Blood for serum cholesterol was collected from each animal before the start of each experimental diet, peri-operatively and at the time of sacrifice. Samples were separated by centrifugation and stored at −20° C. prior to analysis.
Two weeks after carotid de-endothelialization, the animals were sedated with intramuscular xylazine and ketamine and given an intravenous injection of 2% Evans blue in isotonic phosphate-buffered saline. Five minutes later, an abdominal incision was made to access the abdominal aorta for insertion of a cannula connected to a perfusion apparatus, and both jugular veins exposed for perfusion run-off. The animals were then killed by an overdose of anaesthetic and perfused with buffered saline at a rate of 100 ml/minute/kg body weight. When the run-off was clear, the saline was replaced with 4% paraformaldehyde in isotonic PBS at the same flow rate. Perfusion was continued for 15 minutes. After fixation in situ, the denuded and contralateral carotids were dissected free and cleaned of adherent fat and fascia. The segments were immediately rinsed in PBS and placed in fresh 4% paraformaldehyde overnight for paraffin embedding. Some segments were placed into 2.5% glutaraldehyde for subsequent processing for electron microscopy.
Five micron sections were taken from the blue (de-endothelialised) segments of carotid artery, for haematoxylin and eosin (H&E) staining. Adjacent sections were cut for elastin staining using Verhoeff-Van Geisen (VVG) stain, and immunostaining using monoclonal antibodies directed against rabbit alveolar macrophages (RAM-11) and smooth muscle cell actin (HHF-35), as described by Tsukada et al. (1986).
Serum cholesterol levels were measured by the CHOD-POD enzymatic-colorimetric method using a Cholesterol C-system kit (Boehringer Corp., Lewes, UK) and a Vitalab 100 autoanalyzer with Precipath U and Precinorm U (Boehringer Corp., Lewes, UK) quality control material.
The intimal and medial thickness of each segment was measured using a Zeiss Axioskop microscope equipped with a X10 Achroplan objective, a digitizing pad and an IBM 55SX PC containing a VIDS V interface card and VIDS V software. Measurements were performed in duplicate on three mid-carotid VVG stained sections. […]

injured carotid arteries = experiment: Balloon angioplasty in rabbits perfused with hyaluronan, carotid artery histology; assay type: in vivo, rabbit; settings: perfused with hyaluronan 5 mg/ml just prior to injury; for adherence / accumulation of white cells on the endothelium of the injured carotid artery: 2, 24, 48 hours after injury
Method: 10 rabbits were anesthetized and balloon angioplasty was performed on them. The rabbits were perfused with hyaluronan (5 mg/ml) or buffer alone and allowed their recover. […] Sections were stained with hematoxylin or with anti RHAMM antibodies. 10 sections of each treatment were analyzed.

[5] = HYAL + CHOL group, n=15, s.c. injections
[6] = MEAN of HYAL + CHOL group, N=15, 2 weeks after injury
[7] = hyaluronan-treated group, 2 weeks after injury
[8] = individual animals of the HYAL + CHOL group, 2 weeks after injury
[9] = mean ± SEM, n=15, Hyal 15 mg/kg/d

Substance: YKQKIKHVVKLK [peptide aa^401-411]
- chemotaxis of S1 to endotoxin-activated mouse serum (macrophage cell line S1): inhibited
- locomotion of smooth muscle cells responding to injury ([1]; peptides 100 ng/plate, FIG. 6): inhibits
- rate of translocation of smooth muscle cells following wounding of monolayers ([1]; peptides 2 μg/mL, 5 hours after wounding, FIG. 12): significantly reduced
- chemotaxis of WEHI-3 to endotoxin-activated mouse serum [2]: inhibited
- chemotaxis of neutrophils to IL-8 (Human neutrophils): significantly inhibited

Substance: sodium hyaluronate
- mean I:M ratio [3, 5]: 0.591
- mean absolute intimal thickness [3, 5]: 95.7 μm
- neo-intimal thickness following balloon angioplasty injury ([3]; cholesterol-fed rabbits, FIGS. 20 and 21): significantly inhibited
- intimal thickening in the cholesterol-fed rabbits ([4]; 15 mg/kg i.v. immediately pre-operatively, then daily s.c. for fourteen days): significantly inhibited
- neo-intimal macrophage content in the cholesterol-fed rabbits ([4]; 15 mg/kg/d, 2 weeks after injury): reduced
- mean medial thickness compared with the control animals ([4]; 2 weeks after injury, p>0.05): did not differ significantly
- Body Weight, Sacrifice ([4]; MEAN of HYAL + CHOL group, N=15): 2.64 kg
- I/M [4, 6]: 0.59
- INTIMA [4, 6]: 65.79 microns
- Intimal Macrophage Content (%) [4, 6]: 3.22%
- MEDIA [4, 6]: 105.01 microns
- Mean weight, Sacrifice ([4]; group mean ± SEM, n=15, at sacrifice, Hyal 15 mg/kg/d): 2.64 ± 0.09 kg
- intima: media ratio [4, 7]: 0.59±0.011
- mean intimal macrophage content [4, 7]: 3.22±1.05%
- I/M [4, 8]: 0.68 and 1.10 and 0.21 and 0.42 and 0.46 and 0.30 and 1.03 and 0.66 and 0.24 and 1.61 and 0.81 and 0.10 and 0.72 and 0.08 and 0.45
- INTIMA [4, 8]: 82.60 microns and 212.00 microns and 22.00 microns and 55.62 microns and 42.10 microns and 17.44 microns and 76.40 microns and 48.23 microns and 26.63 microns and 187.50 microns and 112.22 microns and 8.44 microns and 84.87 microns and 8.38 microns and 2.35 microns
- Intimal Macrophage Content (%) [4, 8]: 6.90% and 13.20% and 3.10% and 5.50% and 0.17% and 1.10% and 0.40% (2×) and 0.00% (2×) and 1.70% and 7.80% and 0.50% and 4.70% and 2.90%
- MEDIA [4, 8]: 118.90 microns and 200.00 microns and 109.00 microns and 139.14 microns and 91.10 microns and 78.28 microns and 74.70 microns and 74.65 microns and 111.50 microns and 118.72 microns and 143.77 microns and 83.43 microns and 120.62 microns and 105.57 microns and 5.81 microns
- Body Weight, Sacrifice ([4]; individual animals of the HYAL + CHOL group, at sacrifice): 2.60 kg (2×) and 2.89 kg and 2.91 kg and 3.40 kg and 2.88 kg and 2.81 kg (2×) and 2.25 kg and 2.74 kg and 2.35 kg and 2.15 kg and 2.40 kg and 2.38 kg and 2.42 kg
- Body Weight, Start ([4]; individual animals of the HYAL + CHOL group, before treatment): 2.25 kg
- Mean Intimal thickness 2 weeks after injury [4, 9]: 0.068 ± 0.016 mm
- Mean intima/media ratio 2 weeks after injury [4, 9]: 0.59 ± 0.11
- Mean intimal macrophage content 2 weeks after injury (% of total cell number) [4, 9]: 3.22 ± 0.98%
- gain in body weight over the three week experimental period ([4]; rabbit, in vivo): approximately 30%
- reduction in mean intimal macrophage content ([4]; 2 weeks after injury, listed as Hyaluronan): 62%
- reduction in mean intimal macrophage content ([4]; 2 weeks after injury, listed as hyaluronan): approximately 62%
- reduction of the intima: media ratio ([4]; versus cholesterol-fed control group, 2 weeks after injury, 15 mg/kg/d): 35%
- reduction of the absolute neo-intimal response to injury (absolute size of the neo-intima) ([4]; 2 weeks after injury, 15 mg/kg/d, listed as Hyaluronan): 42%
- reduction of the absolute neo-intimal response to injury (absolute size of the neo-intima) ([4]; 2 weeks after injury, 15 mg/kg/d, listed as hyaluronan): approximately 46%
- endothelial cell layer of the injured carotid artery (histology) (injured carotid arteries): intact endothelial cell layer
- adherence / accumulation of white cells on the endothelium of the injured carotid artery (injured carotid arteries; listed as Hyaluronan): abolished
- adherence / accumulation of white cells on the endothelium of the injured carotid artery (injured carotid arteries; listed as hyaluronan): do not exhibit accumulations of white cells
